US20250082659A1, “MANNO-OLIGOSACCHARIDE COMPOSITIONS FOR PATHOGEN CONTROL” (priority 2022, published 2025)

System: Streptococcus mutans
Assay: Inhibition of Streptococcus mutans by penicillin with or without MOS (Example 12)
Conditions: BHI media

penicillin
inhibition of S. mutans growth: 10%
